From patent publication US5773439A, “Amido-quinoxalinediones, the preparation and use thereof” (BASF Aktiengesellschaft, priority 1994, dated 1998)
pKi: −log10 of the molar value.

Tested on: AMPA receptor
Test: Binding of 3H-AMPA to rat cerebra membranes
Conditions: for activity compared with the substance of Example 56 in EP 572,852 and compound 16: 3H-AMPA binding; for pKi: displacement of 3H-AMPA, isolated membrane material from rat cerebra
Procedure: The pharmacological activity of the compounds I was investigated in isolated membrane material from rat cerebra. For this purpose, the membrane material was treated in the presence of the compounds according to the invention with the radiolabeled substances ^3 H-2-amino-3-hydroxy-5-methyl-4-isoxazolepropionic acid (^3 H-AMPA) [^3 H]-glycine or [^3 H]-kainate, these binding to specific receptors (AMPA, NMDA or kainate receptors). Subsequently, the radioactivity of the treated membranes was measured by scintillation counting. It was possible to determine from the bound radioactivity the amounts of bound ^3 H-AMPA, [^3 H]-glycine or [^3 H]-kainate, or in each case the amounts of these radiolabeled substances displaced. The dissociation constant KI (I=inhibitor) derived from this is a measure of the displacing action of the agent according to the invention and was found by iterative non-linear regression analysis using the statistical analysis system (SAS) on an IBM computer, similar to the "Ligand" program of P. J. Munson and D. Rodbard (Analytical Biochem. 107, 220 (1980), Ligand: Versatile Computerized Approach for Characterization of Ligand Binding Systems).
1. Binding of ^3 H-2-amino-3-hydroxy-5-methyl-4-isoxazolepropionic acid (^3 H-AMPA)
To prepare the membrane material, freshly removed rat cerebra were homogenized together with 15 times the volume of a buffer solution A comprising 30 mM α,α,α-tris(hydroxymethyl)methylamine hydrochloride (TRIS-HCl) and 0.5 mM ethylenediaminetetraacetic acid (EDTA), pH 7.4, using an Ultra-Turrax®. The suspension was centrifuged at 48,000 g for 20 min. After removal of the supernatant liquid, the protein-containing membrane material contained in the sediment was washed three times by suspension in buffer solution A and subsequent centrifugation at 48,000 g for 20 minutes each time. The membrane material was then suspended in 15 times the volume of buffer solution A and incubated at 37° C. for 30 min. The protein material was subsequently washed twice by centrifugation and suspension and stored at -70° C. until used.
For the binding assay, the protein material was thawed at 37° C. and washed twice by centrifugation at 48,000 g (20 min) and subsequent suspension in a buffer solution B comprising 50 mM TRIS-HCl, 0.1M potassium thiocyanate and 2.5 mM calcium chloride, pH 7.1. Subsequently, 0.25 mg of membrane material, 0.1 μCi of ^3 H-AMPA (60 Ci/mmol) and compound I were dissolved in 1 ml of buffer solution B and incubated on ice for 60 min. The incubated solution was filtered through a CF/B filter (from Whatman) which had previously been treated with a 0.5% strength aqueous solution of polyethyleneimine for at least 2 hours. The membrane residue was subsequently washed with 5 ml of cold buffer solution B in order to separate bound and free ^3 H-AMPA from one another. After measurement of the radioactivity of the bound ^3 H-AMPA in the membrane material by scintillation counting, the KI was determined by regression analysis of the displacement plots.

activity compared with the substance of Example 56 in EP 572,852 and compound 16 (comparison in words) | pKi | activity compared with 1-carbamoyl-7-pyrrolylquinoxalinedione (Example 56 in EP 572,852) (comparison in words, test not named) | SMILES
more active | > 5.00 | – | O=C(Nn1c(=O)c(=O)[nH]c2cc(C(F)(F)F)ccc21)c1ccccc1 [Example 1, 1-Benzamido-6-trifluoromethylquinoxaline-2,3(1H,4H)-dione]
more active | > 5.00 | distinctly more active | O=C(Nn1c(=O)c(=O)[nH]c2cc(C(F)(F)F)c(-n3cccc3)cc21)c1ccccc1 [Example 29, 1-Benzamido-7-(1-pyrrolyl)-6-trifluoromethylquinoxaline-2,3-(1H,4H)-dione]
